Data published in patent publication US11959929B2, “Method of quantifying lysergic acid diethylamide (LSD) and 2,3-dihydro-3-hydroxy-2-oxo lysergide (O-H-LSD) in human plasma” (Universitatsspital Basel, priority 2020, dated 2024).
“And” between values parts separate entries of the source, which are not always exact repeats. Identical values can stand only once.

Experiments:
[1] = Clinical application: plasma concentration-time profile of LSD and O-H-LSD after a single oral 5 μg LSD dose in healthy volunteers; assay type: in vivo, human; conditions: three healthy volunteers
Description: To examine the application of the developed method, LSD and O-H-LSD concentrations were quantified in plasma samples of three healthy volunteers receiving a single oral dose of 5 μg. This corresponds to a very low LSD dose, used in LSD microdosing clinical trials (Holze et al., 2021a). The study was conducted in accordance with the Declaration of Helsinki and approved by the Medical Ethics Committee of the Academic Hospital of Maastricht and Maastricht University. The use of LSD in humans was authorized by the Dutch Drug Enforcement Administration. All volunteers provided written informed consent prior to study participation. To establish concentration time profiles, blood samples were collected in lithium heparin coated tubes at the following time points: 0, 0.5, 1, 1.5, 2, 3, 4, 6 after treatment. Blood samples were centrifuged, and plasma was frozen at −20° C. until analysis.
The application of the method was assessed by analyzing the PK of LSD and O-H-LSD in three healthy volunteers treated with an oral dose of 5 μg LSD base (FIG. 5). An oral dose of 5 μg LSD base in ethanol (Holze et al., 2021) was administered to three healthy volunteers. Plasma concentrations of LSD and O-H-LSD were quantified before and up to six hours post-treatment. […] Mean values and the standard deviations are illustrated.
The maximal plasma level of LSD and O-H-LSD was on average 178 pg/ml (SD: 30.6 pg/ml) and 10.4 pg/ml (SD: 2.59 pg/ml), respectively. LSD reached Tmax approximately after 1 hour post-treatment, whereas O-H-LSD peaked after 3 hours. The LSD concentrations measured after a dose of only 5 μg were approximately 7 to 18 times higher than the methods limit of quantification. Thus, the PK of LSD could straightforwardly be established also for very low so-called microdoses (Kuypers et al., 2019). In the case of O-H-LSD, a larger amount of plasma sample was required to determine the plasma concentration time profile after a dose of 5 μg. Three times more plasma was utilized (150 instead of 50 μl), which was extracted as outlined above using however three-fold more acetonitrile for the extraction. Sensitivity was increased by evaporating the extract and reconstituting the residue in a mixture of 150 μl of mobile phase A and mobile phase B (9/1 v/v). […] In future, it will also be considered to inject a larger amount of extract, which is in a first step retained and concentrated on a trapping column. In a second step, the direction of the flow is inverted and so that the sample can be loaded and eluted on the analytical column. This column switching procedure, will increase the sensitivity in the event that the sample can be retained on the trap column. Importantly, the time-consuming solvent evaporation step can thereby be avoided.

[2] = Freeze/thaw stability tests in human plasma (three cycles, about −20° C.); assay type: physicochemical; conditions: for Change in concentration [%]: 3 F/T cycles vs Baseline; for Accuracy: single QC replicate
Description: (§1) Each analyte had to be stable in human plasma for at least three freeze-thaw cycles (for repeated sample preparations) and at ambient temperature for at least eight hours (maximal duration of sample preparation). Measured samples should be stable for a second injection when the first analytical run was not valid. The analytes had to be stable in the matrix at the intended storage temperatures and study duration.
(§2) An analyte was considered stable at one of the above tests when no increase or decrease of the analyte concentration of more than 15% for the mean of at least three analyzed QC samples at low, medium and at high concentration was observed.
Seven of each LLOQ, QCLOW, QCMID, QCHIGH, and ULOQ sample in human plasma were stored at about −20° C. for at least 24 hours and thawed unassisted at ambient temperature. When completely thawed, the samples were refrozen for at least 12 hours under the same conditions. The freeze-thaw cycle was repeated two more times. After the third cycle the samples were worked up and analyzed. The concentrations in the frozen and thawed samples were compared with freshly processed QC samples. Concentrations were calculated based on two freshly prepared CALs measured at the beginning and the other at the end of the validation run.

[3] = Reinjection reproducibility of worked-up plasma samples (overnight at 10° C. in autosampler; 1 week at −20° C.); assay type: physicochemical, human; conditions: for Change in concentration: 1 night at 10° C. in the autosampler vs Baseline; for Change in concentration [%]: 8 days at −20° C. vs Baseline; for Accuracy: single QC replicate
Description: as §1, §2
Worked-up and measured Cal and QC samples (prepared in human plasma) of a valid run were repeatedly analyzed. Reinjection was performed after overnight storage at 10° C. (autosampler) and after 1-week storage at −20° C. The run was checked according to the acceptance criteria for validation runs. The calculated mean values for QC samples were compared between the original and reinjected run.

[4] = QCHIGH: 1000 pg/ml, 3 F/T cycles
[5] = ULOQ: 10000 pg/ml, 3 F/T cycles
[6] = LLOQ: 10 pg/ml, reinjection after 8 days at −20° C.
[7] = QCHIGH: 1000 pg/ml, reinjection after 8 days at −20° C.
[8] = QCLOW: 25 pg/ml, reinjection after 8 days at −20° C.
[9] = QCMID: 100 pg/ml, reinjection after 8 days at −20° C.
[10] = ULOQ: 10000 pg/ml, reinjection after 8 days at −20° C.

In the case of `CCN(CC)C(=O)C1C=C2c3cccc4c3C(O)(C[C@H]2N(C)C1)C(=O)N4` (some centres unmarked) [O-H-LSD, 2,3-dihydro-3-hydroxy-2-oxo lysergide], the “Tmax (time of peak plasma level post-treatment)” value ([1]; single oral dose of 5 μg LSD base) is reported as 3 h, the “maximal plasma level (average)” value ([1]; single oral dose of 5 μg LSD base in ethanol, LC-MS/MS, O-H-LSD measured as metabolite using 150 μl plasma) is reported as 10.4 pg/mL and the “Accuracy, Intra-assay Mean” value ([2]; LLOQ: 10 pg/ml, 3 F/T cycles) is reported as 97%. For the same compound, the “Found at, Intra-assay Mean” value ([2]; LLOQ: 10 pg/ml, 3 F/T cycles) was 9.7 pg/mL, the “Change in concentration [%]” value ([2]; LLOQ: 10 pg/ml) was 6.46% and the Accuracy ([2]; LLOQ: 10 pg/ml, 3 F/T cycles) was 95.9% and 97.1% and 81.7% and 95.2% and 108% and 104% and 73.9* %. For the same compound, the “Accuracy, Intra-assay Mean” value ([2]; LLOQ: 10 pg/ml, Baseline) was 91.1%, the “Found at, Intra-assay Mean” value ([2]; LLOQ: 10 pg/ml, Baseline) was 9.11 pg/mL and the Accuracy ([2]; LLOQ: 10 pg/ml, Baseline) was 95% and 88.9% and 89.4%. The “Accuracy, Intra-assay Mean” value [2, 4] was 96.7%, the “Found at, Intra-assay Mean” value [2, 4] was 967 pg/mL and the “Change in concentration [%]” value ([2]; QCHIGH: 1000 pg/ml) was 0.123%. The Accuracy [2, 4] was 95% and 93.1% and 97.5% and 96.2% and 99.5% and 97.7% and 98.1%, the “Accuracy, Intra-assay Mean” value ([2]; QCHIGH: 1000 pg/ml, Baseline) was 96.6% and the “Found at, Intra-assay Mean” value ([2]; QCHIGH: 1000 pg/ml, Baseline) was 966 pg/mL. The Accuracy ([2]; QCHIGH: 1000 pg/ml, Baseline) was 97.7% and 96.2% and 95.9%, the “Accuracy, Intra-assay Mean” value ([2]; QCLOW: 25 pg/ml, 3 F/T cycles) was 96.9% and the “Found at, Intra-assay Mean” value ([2]; QCLOW: 25 pg/ml, 3 F/T cycles) was 24.2 pg/mL. The “Change in concentration [%]” value ([2]; QCLOW: 25 pg/ml) was 1.57%, the Accuracy ([2]; QCLOW: 25 pg/ml, 3 F/T cycles) was 109% and 96.6% and 91.4% and 101% and 97.5% and 89.3% and 92.9% and the “Accuracy, Intra-assay Mean” value ([2]; QCLOW: 25 pg/ml, Baseline) was 95.3%. For the same compound, the “Found at, Intra-assay Mean” value ([2]; QCLOW: 25 pg/ml, Baseline) was 23.8 pg/mL, the Accuracy ([2]; QCLOW: 25 pg/ml, Baseline) was 94.7% and 91.5% and 99.8% and the “Accuracy, Intra-assay Mean” value ([2]; QCMID: 100 pg/ml, 3 F/T cycles) was 98.7%. The “Found at, Intra-assay Mean” value ([2]; QCMID: 100 pg/ml, 3 F/T cycles) was 98.7 pg/mL, the “Change in concentration [%]” value ([2]; QCMID: 100 pg/ml) was 3.7% and the Accuracy ([2]; QCMID: 100 pg/ml, 3 F/T cycles) was 95.4% and 102% (2×) and 98.9% and 100% and 94.8% and 97.3%. For the same compound, the “Accuracy, Intra-assay Mean” value ([2]; QCMID: 100 pg/ml, Baseline) was 95.2%, the “Found at, Intra-assay Mean” value ([2]; QCMID: 100 pg/ml, Baseline) was 95.2 pg/mL and the Accuracy ([2]; QCMID: 100 pg/ml, Baseline) was 95.7% and 98.6% and 91.4%. For the same compound, the “Accuracy, Intra-assay Mean” value [2, 5] was 94.9%, the “Found at, Intra-assay Mean” value [2, 5] was 9490 pg/mL and the “Change in concentration [%]” value ([2]; ULOQ: 10000 pg/ml) was −0.589%. The Accuracy [2, 5] was 92.9% and 92.6% and 96.2% and 96% and 94.8% and 94.4% and 97.2%, the “Accuracy, Intra-assay Mean” value ([2]; ULOQ: 10000 pg/ml, Baseline) was 95.4% and the “Found at, Intra-assay Mean” value ([2]; ULOQ: 10000 pg/ml, Baseline) was 9540 pg/mL. For the same compound, the Accuracy ([2]; ULOQ: 10000 pg/ml, Baseline) was 94.2% and 92.3% and 99.7%, the “Change in plasma concentration following three freeze/thaw cycles” value ([2]; human plasma QC samples, −20° C., three freeze/thaw cycles, vs freshly processed QC) was at most 6.46% and the Change in concentration ([3]; LLOQ: 10 pg/ml) was 1.86%. The Change in concentration ([3]; QCHIGH: 1000 pg/ml) was 2.08%, the Change in concentration ([3]; QCLOW: 25 pg/ml) was −0.149% and the Change in concentration ([3]; QCMID: 100 pg/ml) was −1.59%. The Change in concentration ([3]; ULOQ: 10000 pg/ml) was 0.101%, the “Change in concentration [%]” value ([3]; LLOQ: 10 pg/ml) was −2.09% and the “Accuracy, Intra-assay Mean” value ([3]; LLOQ: 10 pg/ml, Baseline) was 107%. The “Found at, Intra-assay Mean” value ([3]; LLOQ: 10 pg/ml, Baseline) was 10.7 pg/mL, the Accuracy ([3]; LLOQ: 10 pg/ml, Baseline) was 108% and 113% and 102% and 88.5% and 120% and 97.8% and 116% and the “Accuracy, Intra-assay Mean” value [3, 6] was 104%. The “Found at, Intra-assay Mean” value [3, 6] was 10.4 pg/mL, the Accuracy [3, 6] was 99.5% and 106% and 116% and 107% and 94.2% and 93.9% and 113% and the “Change in concentration [%]” value ([3]; QCHIGH: 1000 pg/ml) was −1.05%. For the same compound, the “Accuracy, Intra-assay Mean” value ([3]; QCHIGH: 1000 pg/ml, Baseline) was 103%, the “Found at, Intra-assay Mean” value ([3]; QCHIGH: 1000 pg/ml, Baseline) was 1030 pg/mL and the Accuracy ([3]; QCHIGH: 1000 pg/ml, Baseline) was 103% (2×) and 105% (2×) and 99.6% and 99% and 106%. For the same compound, the “Accuracy, Intra-assay Mean” value [3, 7] was 102%, the “Found at, Intra-assay Mean” value [3, 7] was 1020 pg/mL and the Accuracy [3, 7] was 101% (2×) and 105% and 99.3% and 100% and 102% and 104%. For the same compound, the “Change in concentration [%]” value ([3]; QCLOW: 25 pg/ml) was −0.294%, the “Accuracy, Intra-assay Mean” value ([3]; QCLOW: 25 pg/ml, Baseline) was 105% and the “Found at, Intra-assay Mean” value ([3]; QCLOW: 25 pg/ml, Baseline) was 26.2 pg/mL. For the same compound, the Accuracy ([3]; QCLOW: 25 pg/ml, Baseline) was 103% and 116* % and 108% (2×) and 109% and 101% and 100%, the “Accuracy, Intra-assay Mean” value [3, 8] was 105% and the “Found at, Intra-assay Mean” value [3, 8] was 26.1 pg/mL. For the same compound, the Accuracy [3, 8] was 104% (2×) and 115% and 109% and 96.5% and 108% and 97.3%, the “Change in concentration [%]” value ([3]; QCMID: 100 pg/ml) was 1.9% and the “Accuracy, Intra-assay Mean” value ([3]; QCMID: 100 pg/ml, Baseline) was 103%. For the same compound, the “Found at, Intra-assay Mean” value ([3]; QCMID: 100 pg/ml, Baseline) was 103 pg/mL, the Accuracy ([3]; QCMID: 100 pg/ml, Baseline) was 101% and 102% (2×) and 104% and 106% and 108% and 98.5% and the “Accuracy, Intra-assay Mean” value [3, 9] was 105%. The “Found at, Intra-assay Mean” value [3, 9] was 105 pg/mL, the Accuracy [3, 9] was 109% (2×) and 98% and 104% and 106% and 102% and 107% and the “Change in concentration [%]” value ([3]; ULOQ: 10000 pg/ml) was −1.27%. For the same compound, the “Accuracy, Intra-assay Mean” value ([3]; ULOQ: 10000 pg/ml, Baseline) was 100%, the “Found at, Intra-assay Mean” value ([3]; ULOQ: 10000 pg/ml, Baseline) was 10000 pg/mL and the Accuracy ([3]; ULOQ: 10000 pg/ml, Baseline) was 101% (2×) and 98.5% and 98.4% and 97.7% and 102% (2×). The “Accuracy, Intra-assay Mean” value [3, 10] was 98.8%, the “Found at, Intra-assay Mean” value [3, 10] was 9880 pg/mL and the Accuracy [3, 10] was 97.3% and 97.6% and 97.5% and 96.9% and 103% and 98.8% and 101%. The “Deviations of the means of the QCs of the two runs (reinjection) after 8 days at −20° C.” value ([3]; worked-up human plasma samples, 8 days at −20° C.) was −2.09% to +1.9 and the “Deviations of the means of the QCs of the two runs (reinjection) after overnight storage at 10° C.” value ([3]; worked-up human plasma samples, overnight at 10° C. in the autosampler) was −1.59% to +2.08.
